Results published in PMC12459184, “Design, synthesis, and bioevaluation of pyrazole-containing tubulin polymerisation inhibitors based on conformational constraint strategy” (Journal of Enzyme Inhibition and Medicinal Chemistry, 2025).
Read-outs that look alike come from different tables or passages of the source.

How the values were obtained:
tubulin = assay: In vitro tubulin polymerisation assay; assay type: biochemical; settings: 3 μM
Method: To investigate the effect of compounds 4k and 5a on microtubule system, their tubulin polymerisation inhibition activities were evaluated using in vitro tubulin polymerisation assay.
The BK001 kit used in this test was purchased from Cytoskeleton Inc. (Denver, CO, USA). […] Then the mixtures were transferred to 37 °C and tubulin assembly was monitored (excitation wavelength: 360 nm; emission wavelength: 420 nm) at 1 min intervals for 90 min by a microplate reader.

MCF-7 cells = assay: MTT antiproliferative assay, MCF-7; assay type: cell-based; settings: Homo sapiens, read-out: IC50 (μM) ± SD MCF-7
Method: (§1) The in vitro antiproliferative activities of all target compounds 4a−k, 5a−h, and 6a−h were assayed by MTT method using human gastric cancer cell line SGC-7901 and human breast cancer cell line MCF-7.
(§2) All cell lines tested in this study were purchased from the American Type Culture Collection (ATCC, Manassas, VA). SGC-7901 (human gastric adenocarcinoma), HCT-116 (human colon carcinoma), and A549 (human pulmonary carcinoma) cells were cultured in RPMI-1640 medium containing 10% foetal serum (FBS) and 1% penicillin-streptomycin solution (100×). MCF-7 (human breast carcinoma) cells were cultured in DMEM medium containing 10% foetal serum (FBS) and 1% penicillin-streptomycin solution (100×). PC-3 (human prostate carcinoma) cells were cultured in Ham’s F-12K medium containing 10% foetal serum (FBS) and 1% penicillin-streptomycin solution (100×). All cells were cultured at 37 °C in a humidified atmosphere containing 5% CO2.
(§3) Cells grown in logarithmic phase were harvested and seeded onto 96-well cell plates at a density of 4 ∼ 5 × 10^3 cells per well (various from cell type) and were cultured for 24 h. Different concentrations of compounds were added into the wells, and the cells were cultured for another 72 h. The medium was removed, then 20 μL of MTT (5 mg/mL in PBS) was added to each well and the cells were incubated for 4 h. 150 μL of DMSO was added to each well to dissolve the formazan, and the absorbance at 490 nm of each well was measured by a microplate reader. IC50 values were calculated by SPSS software.

SGC-7901 cells = assay: MTT antiproliferative assay, SGC-7901; assay type: cell-based; settings: Homo sapiens, read-out: IC50 (μM) ± SD SGC-7901
Method: as §1, §2, §3

[1] = system: microtubule network in PC-3 cells; assay: Immunofluorescence assay of microtubule network; assay type: cell-based, human; settings: 20 nM, 24 h
Method: To evaluate the effects of 4k and 5a on intracellular microtubule, immunofluorescence assay was carried out to observe the changes of microtubule network in cell.
PC-3 cells in logarithmic phase were harvested and seeded onto 12-well cell plates with round coverslip on the bottom of each well at a density of 3 × 10^4 cells per well, and were cultured for 24 h. […] The medium was removed, and cells were washed with PBS twice, fixed with 4% formaldehyde in PBS for 30 min, then the solution was removed. Cells were washed with PBS twice, permeabilized with 0.2% (v/v) Triton X-100 in PBS for 30 min, then the solution was removed. Cells were washed with PBS twice, blocking the cells in 5% bovine serum albumin (BSA) for 30 min. Then BSA was removed, and cells were incubated with the primary α-tubulin antibody (Santa Cruz, CA) containing 2% BSA (v/v, 1: 100) overnight at 4 °C.
The following steps were operated in dark environment. The antibody was removed, then cells were washed with PBST twice and were added FITC-conjugated anti-mouse secondary antibody diluted (1:100) with 2% BSA in PBS and incubated at room temperature for 4 h. The cells were then washed with PBST twice, stained with 4′,6-diamidino-2-phenylindole (DAPI) for 30 min at room temperature, and washed with PBS twice. The round coverslips at the bottom of wells were taken out, and the images were photographed by a confocal microscope.

[2] = MCF7, 72 h drug exposure, MTT assay
[3] = SGC-7901, 72 h drug exposure, MTT assay

Compound | IC50 (MCF-7 cells; [2]) [µM] | IC50 (SGC-7901 cells; [3]) [µM] | other results
CC(=O)O[C@H]1C(=O)[C@@]2(C)[C@H]([C@H](OC(=O)c3ccccc3)[C@]3(O)C[C@H](OC(=O)[C@H](O)[C@@H](NC(=O)c4ccccc4)c4ccccc4)C(C)=C1C3(C)C)[C@]1(OC(C)=O)CO[C@@H]1C[C@@H]2O [paclitaxel, reference compound] |  |  | effect on tubulin polymerisation (fluorescence intensity) (tubulin): enhanced microtubule polymerisation
COc1cc(C(=O)c2nn(-c3cccc(C)c3)cc2N)cc(OC)c1OC [4b, (4-Amino-1–(3-methylphenyl)-1H-pyrazol-3-yl)(3,4,5-trimethoxyphenyl)methanone] | 0.224 ± 0.06 | 0.095 ± 0.011 | 
COc1cc(C(=O)c2nn(-c3ccc([N+](=O)[O-])cc3)cc2N)cc(OC)c1OC [4j, (4-Amino-1–(4-nitrophenyl)-1H-pyrazol-3-yl)(3,4,5-trimethoxyphenyl)methanone] | 0.391 ± 0.083 | 0.04 ± 0.006 | 
COc1cc(C2=NCC(=O)Nc3cn(-c4ccc(Cl)cc4)nc32)cc(OC)c1OC [5h, 2–(4-Chlorophenyl)-8–(3,4,5-trimethoxyphenyl)-2,6-dihydropyrazolo[4,3-e][1,4]diazepin-5(4H)-one] | 0.857 ± 0.09 | 0.772 ± 0.004 | 
COc1cc(C2=NCC(=O)Nc3cn(-c4ccc(F)cc4)nc32)cc(OC)c1OC [5f, 2–(4-Fluorophenyl)-8–(3,4,5-trimethoxyphenyl)-2,6-dihydropyrazolo[4,3-e][1,4]diazepin-5(4H)-one] | 1.86 ± 0.438 | 0.137 ± 0.025 | 
COc1cc(C2=NCC(=O)Nc3cn(-c4cccc(F)c4)nc32)cc(OC)c1OC [5e, 2–(3-Fluorophenyl)-8–(3,4,5-trimethoxyphenyl)-2,6-dihydropyrazolo[4,3-e][1,4]diazepin-5(4H)-one] | 3.01 ± 0.534 | 0.949 ± 0.017 | 
COc1cc(C(=O)c2nn(-c3ccccc3F)cc2N)cc(OC)c1OC [4d, (4-Amino-1–(2-fluorophenyl)-1H-pyrazol-3-yl)(3,4,5-trimethoxyphenyl)methanone] | 0.404 ± 0.036 | 0.086 ± 0.004 | 
COc1cc(C(=O)c2nn(-c3ccc(C)cc3)cc2N)cc(OC)c1OC [4c, (4-Amino-1–(4-methylphenyl)-1H-pyrazol-3-yl)(3,4,5-trimethoxyphenyl)methanone] | 3.9 ± 0.205 | 0.234 ± 0.033 | 
COc1cc2c(c(OC)c1OC)-c1ccc(OC)c(=O)cc1[C@@H](NC(C)=O)CC2 [Colchicine, reference compound] |  |  | effect on microtubule network [1]: microtubule network was destroyed
COc1cc(C(=O)c2nn(-c3ccccc3C)cc2N)cc(OC)c1OC [4i, (4-Amino-1–(2-methylphenyl)-1H-pyrazol-3-yl)(3,4,5-trimethoxyphenyl)methanone] | 2.2 ± 0.196 | 0.166 ± 0.004 | 
COc1ccc(-n2cc(N)c(C(=O)c3cc(OC)c(OC)c(OC)c3)n2)cc1 [4g, (4-Amino-1–(4-methoxyphenyl)-1H-pyrazol-3-yl)(3,4,5-trimethoxyphenyl)methanone] | 0.068 ± 0.012 | 0.022 ± 0.002 | 
COc1cc(C2=NCC(=O)Nc3cn(-c4ccccc4F)nc32)cc(OC)c1OC [5d, 2–(2-Fluorophenyl)-8–(3,4,5-trimethoxyphenyl)-2,6-dihydropyrazolo[4,3-e][1,4]diazepin-5(4H)-one] | 1.08 ± 0.381 | 0.053 ± 0.008 | 
COc1cc(C(=O)c2nn(-c3ccc(Cl)cc3)cc2N)cc(OC)c1OC [4h, (4-Amino-1–(4-chlorophenyl)-1H-pyrazol-3-yl)(3,4,5-trimethoxyphenyl)methanone] | 0.098 ± 0.007 | 0.318 ± 0.02 | 
COc1cc(C(=O)c2nn(-c3ccc(F)cc3)cc2N)cc(OC)c1OC [4f, (4-Amino-1–(4-fluorophenyl)-1H-pyrazol-3-yl)(3,4,5-trimethoxyphenyl)methanone] | 0.162 ± 0.01 | 0.092 ± 0.005 | 
COc1ccc(-n2cc3c(n2)C(c2cc(OC)c(OC)c(OC)c2)=NCC(=O)N3)cc1 [5g, 2–(4-Methoxyphenyl)-8–(3,4,5-trimethoxyphenyl)-2,6-dihydropyrazolo[4,3-e][1,4]diazepin-5(4H)-one] |  |  | IC50 (MCF-7 cells; MCF7, 72 h): 2.86 ± 0.435 µM; IC50 (SGC-7901 cells; SGC-7901, 72 h): 0.841 ± 0.024 µM
COc1cc(C2=NCC(=O)Nc3cn(-c4ccc(C)cc4)nc32)cc(OC)c1OC [5c, 2–(4-Methylphenyl)-8–(3,4,5-trimethoxyphenyl)-2,6-dihydropyrazolo[4,3-e][1,4]diazepin-5(4H)-one] | 1.38 ± 0.433 | 0.117 ± 0.01 | 
COc1cc(C2=NCC(=O)Nc3cn(-c4cccc(C)c4)nc32)cc(OC)c1OC [5b, 2–(3-Methylphenyl)-8–(3,4,5-trimethoxyphenyl)-2,6-dihydropyrazolo[4,3-e][1,4]diazepin-5(4H)-one] | 0.665 ± 0.052 | 0.424 ± 0.076 | 
COc1cc(C(=O)c2nn(-c3ccccc3)cc2N)cc(OC)c1OC [4a, (4-Amino-1-phenyl-1H-pyrazol-3-yl)(3,4,5-trimethoxyphenyl)methanone] | 0.034 ± 0.005 | 0.04 ± 0.003 | 
COc1cc(C(=O)c2nn(-c3cccc(F)c3)cc2N)cc(OC)c1OC [4e, (4-Amino-1–(3-fluorophenyl)-1H-pyrazol-3-yl)(3,4,5-trimethoxyphenyl)methanone] | 0.35 ± 0.023 | 0.439 ± 0.037 | 

Second part, led by results:

IC50 (MCF-7 cells; [2]) [µM] | IC50 (SGC-7901 cells; [3]) [µM] | Compound | other results
1.57 ± 0.243 | 2.16 ± 0.098 | COc1ccc(-n2cc3c(n2)C(c2cc(OC)c(OC)c(OC)c2)=NNC(=S)N3)cc1 [6g, 2–(4-Methoxyphenyl)-8–(3,4,5-trimethoxyphenyl)-2,6-dihydropyrazolo[4,3-e][1,2,4]triazepine-5(4H)-thione] | 
0.749 ± 0.181 | 0.366 ± 0.065 | COc1cc(C2=NNC(=S)Nc3cn(-c4cccc(C)c4)nc32)cc(OC)c1OC [6b, 2–(3-Methylphenyl)-8–(3,4,5-trimethoxyphenyl)-2,6-dihydropyrazolo[4,3-e][1,2,4]triazepine-5(4H)-thione] | 
8.42 ± 0.954 | 10 ± 0.078 | COc1cc(C2=NNC(=S)Nc3cn(-c4ccc(F)cc4)nc32)cc(OC)c1OC [6f, 2–(4-Fluorophenyl)-8–(3,4,5-trimethoxyphenyl)-2,6-dihydropyrazolo[4,3-e][1,2,4]triazepine-5(4H)-thione] | 
2.98 ± 0.462 | 2.74 ± 0.041 | COc1cc(C2=NNC(=S)Nc3cn(-c4ccccc4)nc32)cc(OC)c1OC [6a, 2-Phenyl-8–(3,4,5-trimethoxyphenyl)-2,6-dihydropyrazolo[4,3-e][1,2,4]triazepine-5(4H)-thione] | 
6.9 ± 0.815 | 5.12 ± 0.099 | COc1cc(C2=NNC(=S)Nc3cn(-c4cccc(F)c4)nc32)cc(OC)c1OC [6e, 2–(3-Fluorophenyl)-8–(3,4,5-trimethoxyphenyl)-2,6-dihydropyrazolo[4,3-e][1,2,4]triazepine-5(4H)-thione] | 
0.662 ± 0.07 | 0.485 ± 0.03 | COc1cc(C2=NNC(=S)Nc3cn(-c4ccc(Cl)cc4)nc32)cc(OC)c1OC [6h, 2–(4-Chlorophenyl)-8–(3,4,5-trimethoxyphenyl)-2,6-dihydropyrazolo[4,3-e][1,2,4]triazepine-5(4H)-thione] | 
0.398 ± 0.079 | 0.087 ± 0.008 | COc1cc(C2=NNC(=S)Nc3cn(-c4ccccc4F)nc32)cc(OC)c1OC [6d, 2–(2-Fluorophenyl)-8–(3,4,5-trimethoxyphenyl)-2,6-dihydropyrazolo[4,3-e][1,2,4]triazepine-5(4H)-thione] | 
0.123 ± 0.02 | 0.151 ± 0.024 | COc1cc(C2=NNC(=S)Nc3cn(-c4ccc(C)cc4)nc32)cc(OC)c1OC [6c, 2–(4-Methylphenyl)-8–(3,4,5-trimethoxyphenyl)-2,6-dihydropyrazolo[4,3-e][1,2,4]triazepine-5(4H)-thione] | 
